Test system: NOMO1
Experiment: cell viability relative to DMSO control; higher = less cytotoxic
Conditions: 48 h
Method in brief: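 NOMO1 or SEM cells were plated at 500 cells/well and P12-Ichikawa cells at 1000 cells/well in 1536-well plates (5 μl), after each leukemia line had been adapted for at least four passages in each medium. Pin dosing delivered library compounds in DMSO at 11 threefold concentrations, 47 μM to 0.79 nM. CellTiter-Glo One luminescence was read after 48 h at 37°C. Viability is reported as a per-plate percentage of DMSO wells, with cell-free wells as background.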

[1] = HPLM + 10% dialyzed FBS, 0.000781 µM
[2] = HPLM + 10% dialyzed FBS, 0.00234 µM
[3] = HPLM + 10% dialyzed FBS, 0.00702 µM
[4] = HPLM + 10% dialyzed FBS, 0.0211 µM
[5] = HPLM + 10% dialyzed FBS, 0.0632 µM
[6] = HPLM + 10% dialyzed FBS, 0.19 µM
[7] = HPLM + 10% dialyzed FBS, 0.569 µM
[8] = HPLM + 10% dialyzed FBS, 1.71 µM
[9] = HPLM + 10% dialyzed FBS, 5.12 µM
[10] = HPLM + 10% dialyzed FBS, 15.4 µM
[11] = HPLM + 10% dialyzed FBS, 46.1 µM
[12] = RPMI 5 mM glucose + 10% FBS, 0.000781 µM
[13] = RPMI 5 mM glucose + 10% FBS, 0.00234 µM
[14] = RPMI 5 mM glucose + 10% FBS, 0.00702 µM
[15] = RPMI 5 mM glucose + 10% FBS, 0.0211 µM
[16] = RPMI 5 mM glucose + 10% FBS, 0.0632 µM
[17] = RPMI 5 mM glucose + 10% FBS, 0.19 µM
[18] = RPMI 5 mM glucose + 10% FBS, 0.569 µM
[19] = RPMI 5 mM glucose + 10% FBS, 1.71 µM
[20] = RPMI 5 mM glucose + 10% FBS, 5.12 µM
[21] = RPMI 5 mM glucose + 10% FBS, 15.4 µM
[22] = RPMI 5 mM glucose + 10% FBS, 46.1 µM
[23] = RPMI 5 mM glucose + 10% dialyzed FBS, 0.000781 µM
[24] = RPMI 5 mM glucose + 10% dialyzed FBS, 0.00234 µM
[25] = RPMI 5 mM glucose + 10% dialyzed FBS, 0.00702 µM
[26] = RPMI 5 mM glucose + 10% dialyzed FBS, 0.0211 µM
[27] = RPMI 5 mM glucose + 10% dialyzed FBS, 0.0632 µM
[28] = RPMI 5 mM glucose + 10% dialyzed FBS, 0.19 µM
[29] = RPMI 5 mM glucose + 10% dialyzed FBS, 0.569 µM
[30] = RPMI 5 mM glucose + 10% dialyzed FBS, 1.71 µM
[31] = RPMI 5 mM glucose + 10% dialyzed FBS, 5.12 µM
[32] = RPMI 5 mM glucose + 10% dialyzed FBS, 15.4 µM
[33] = RPMI 5 mM glucose + 10% dialyzed FBS, 46.1 µM

SMILES | cell viability [1] | cell viability [2] | cell viability [3] | cell viability [4] | cell viability [5] | cell viability [6] | cell viability [7] | cell viability [8] | cell viability [9] | cell viability [10] | cell viability [11] | cell viability [12] | cell viability [13] | cell viability [14] | cell viability [15] | cell viability [16] | cell viability [17] | cell viability [18] | cell viability [19] | cell viability [20] | cell viability [21] | cell viability [22] | cell viability [23] | cell viability [24] | cell viability [25] | cell viability [26] | cell viability [27] | cell viability [28] | cell viability [29] | cell viability [30] | cell viability [31] | cell viability [32] | cell viability [33]
Cc1ccc(C(=O)c2cc(O)c(O)c([N+](=O)[O-])c2)cc1 | 91.5% | 104% | 98.2% | 100% | 116% | 101% | 115% | 89.5% | 80.7% | 83.2% | 86.4% | 90.3% | 86.4% | 83.6% | 90.6% | 96% | 83.7% | 90.9% | 81.7% | 94.6% | 87.3% | 92.2% | 100% | 98% | 79.4% | 92.1% | 99.6% | 105% | 108% | 94.3% | 81.8% | 88.4% | 103%
CC1(C)CC(O)CC(C)(C)N1[O] | 100% | 125% | 109% | 115% | 115% | 114% | 125% | 121% | 124% | 129% | 120% | 105% | 122% | 128% | 116% | 128% | 128% | 123% | 118% | 135% | 128% | 127% | 100% | 123% | 121% | 123% | 119% | 119% | 123% | 125% | 120% | 123% | 129%
Cc1ccc(-c2ncn(-c3ccc(Nc4nccc(-c5cccc(N6CCOCC6)c5)n4)cc3)n2)cn1 | 94.8% | 90.9% | 96.8% | 109% | 105% | 87.8% | 13.6% | 10.2% | 7.32% | 8.09% | 5.6% | 88.4% | 40% | 80.9% | 94.6% | 86.4% | 87.4% | 16.4% | 8.16% | 7.21% | 5.58% | 6.57% | 87.7% | 94.2% | 88.9% | 97.8% | 94.9% | 89.2% | 20.3% | 8.8% | 8.22% | 7.85% | 5.33%
CCCCCCCCc1ccc(CCC(N)(CO)CO)cc1 | 124% | 124% | 123% | 122% | 112% | 102% | 79.1% | 91% | 60.6% | 48.9% | 2.93% | 99.2% | 104% | 102% | 100% | 105% | 102% | 104% | 93.4% | 90.3% | 64.2% | 2.61% | 113% | 105% | 103% | 113% | 105% | 95.6% | 98.2% | 81% | 70.5% | 65.2% | 2.38%

— the supplement of paper PMC11451515
